Holding throughout (type): cell-based
In one data set the test system is Nrf2. Description: Nrf2 localisation by indirect immunofluorescence. The note with it: Aβ treated SH-SY5Y cells. The protocol:
Cells were cultured in confocal dishes up to 70% confluence and then treated with Aβ alone and with NMIs (M3), and subjected to immunofluorescence. The cells were washed twice with dPBS and then fixed with 4% paraformaldehyde for 15 min. The cells were then washed twice with dPBS for 5 min followed by treatment with permeabilization buffer (dPBS with 0.1% Triton X-100) for 10 min. The permeabilization buffer was aspirated and rinses with dPBS twice for 5 min. The samples were blocked with 10% goat serum in dPBS for 30 min at room temperature. The blocking solution was aspirated and then was treated with primary antibody (Nrf2/Iba1) with desired dilution in 4° C. with gentle shaking overnight. The samples were then washed with dPBS thrice for 5 min each and treated with Alexa Fluor-488 conjugated secondary antibody for 1 h in room temperature. The cells were washed with dPBS thrice and counterstain with DAPI (1 μM) for 10 min and imaged using confocal microscope.
M3 with in vitro antioxidant activity and in cellulo ROS quenching effect was expected to alleviate oxidative stress and modulate Nrf2 response. The effect of M3 on Nrf2 localisation in Aβ treated SH-SY5Y cells were assessed by indirect immunofluorescence staining study. […]

Data set [1] relates to SH-SY5Y cells. Briefly: Mitochondrial membrane potential (MMP) measurement, Mitotracker Orange. The note with it: Aβ 20 μM, 18 h; for MMP relative to control (100%): Aβ alone 70%. The protocol: For quantifying relative change in MMP, SH-SY5Y cells were seeded into 96 plates and incubated. After 24 h, cells were treated with Aβ (20 μM) alone and with two different concentrations of NMIs (M3) (20 and 50 μM) for 18 h and stained with Mitotracker Orange (500 nM) in media for 15 min followed by washing with PBS twice. Then quickly fluorescence was measured (λex=554 nm and λem=576 nm) by Spectramax multi-well plate reader in well scan mode (>80 points, with 6 flashes per read) and averaged the value. The relative fluorescence of treatments in comparison with control was calculated to assess the change in MMP.
For fluorescence imaging, cells were seeded into glass bottom dishes and incubated for 24 h. Then treated with Aβ (20 μM) alone and with NMIs (M3) (50 μM) in low serum media for 18 h and stained with Mitotracker Orange (500 nM) in media for 15 min. Cells were washed with PBS thrice and imaged in live cell set up in Rhodamine channel using 63× oil immersion using Leica DMi8 fluorescence microscope.
The compound M3 with aggregation modulation and antioxidant activity potentially prevent Aβ mediated mitochondrial damage. Quantitatively measurement of mitochondrial membrane potential (MMP) changes was carried out. SH-SY5Y cells were cultured in 96 well plate, treated with Aβ (20 μM) alone and with different concentrations of M3 (20 μM and 50 μM) for 18 h and relative MMP was measured using MitoOrange fluorescence, a MMP-dependent mitochondrial probe. MMP of Aβ treated cells dropped to 70% compared to control (100%) reflecting the functional damage to mitochondria. Upon treatment with M3 at two concentrations 20 μM and 50 µM, MMP was improved to 88% and 93%, respectively, which indicated prevention of mitochondrial damage (FIG. 14A).
Changes in MMP were visualized by treating the cells with Aβ (20 μM) alone and with M3 (50 μM) for 18 h followed by staining with MitoOrange. […] The ability of M3 to modulate Aβ-induced ROS levels in mitochondria was evaluated by the MitoSOX probe. […]

For data set [2], the system named is SH-SY5Y cells. Description: MTT cytotoxicity assay. The note with it: 24 h, up to 200 μM. The protocol:
The SH-SY5Y cells were seeded onto 96 well plates at cell density of 25,000 cells per well and incubated. After 24 h cells were treated with different concentration of compounds (10, 20, 50, 100 and 200 μM) and incubated. After 24 h MTT (5 mg/mL) was added to the cells and incubated for 3 h, removed media and DMSO/Methanol (1:1) solution added to dissolve formazan crystals. The absorbance was recorded at 570 nm and the percentage cell viability was calculated with respect to control cells treated with vehicle (DMSO).
NMIs modulated metal-independent and dependent Aβ aggregation, reduced ROS in vitro and in cellulo, and rescue cells from oxidative stress. The biocompatibility, the cytotoxicity of compounds of the present disclosure to neuronal cells were evaluated by MTT assay. SH-SY5Y cells were treated with different concentrations of modulators (NMIs) for 24 h and performed MTT assay to determine the cell viability.

Data set [3] concerns SH-SY5Y cells. Description: Apoptosis assay by nuclear staining and morphology. The note with it: Aβ 10 μM, compound 20 µM, 24 h. The protocol: The apoptosis induced by Aβ and rescue by NMIs (M3) was assessed through nuclear staining and morphology analysis. Apoptosis induces DNA damage and morphological change in the nucleus. Based on the nuclear features the extent of apoptosis was assessed as percentage apoptotic cells. SH-SY5Y cells were cultured and treated with Aβ (10 μM) and with NMIs (M3) (20 μM) to quantify the apoptosis and rescue by NMIs (M3). After 24 h the cells were washed with PBS and fixed with 4% paraformaldehyde and then with PBS for 5 min thrice and the nucleus was stained with DAPI (1 μM) for 10 min, washed thrice with PBS and imaged using fluorescence microscope to visualize the nuclear morphology. […] Total of more than 300 cells were counted to calculated the percentage of apoptosis.
Modulation of apoptosis by M3 was quantified by apoptosis assay through nuclear staining and morphological analysis. Apoptotic signals induced nuclear DNA damage show abnormal nuclear features, which has been used to evaluate and quantify the extent of apoptosis. Neuronal cells treated with Aβ (10 μM) alone and with […] for 24 h were stained for the nucleus and analysed for apoptotic morphological features.

Data set [4] concerns SH-SY5Y cells. Briefly: Mitochondrial ROS measurement, MitoSOX. The note with it: Aβ 40 μM, 8 h, Aβ alone 1.76 fold. Here is the method: For quantifying mitochondrial ROS levels, SH-SY5Y cells were seeded into 96 well plates and incubated. After 24 h cells were treated with Aβ (20 μM) alone and with two different concentrations of NMIs (M3) (20 and 50 μM) for 8 h and stained with MitoSox Red (5 μM) in PBS for 15 min followed by a wash with PBS thrice. Then quickly fluorescence was measured (λex=510 nm and λem=580 nm) by Spectramax multi-well plate reader in well scan mode (>80 points, with 6 flashes per read). The relative fluorescence was used to assess ROS levels with respect to control. For ROS imaging, cells were seeded onto glass bottom dishes and incubated for 24 h. Cells were treated with Aβ (20 μM) and with NMIs (M3) (50 μM) in low serum media for 8 h. Then the cells were washed with PBS and stained with MitoSOX (5 μM) prepared in PBS and incubated. After 15 min, wash thrice with PBS and imaged in live cell set up in rhodamine channel using 63× oil immersion using Leica DMi8 fluorescence microscope.
Changes in MMP were visualized by treating the cells with Aβ (20 μM) alone and with M3 (50 μM) for 18 h followed by staining with MitoOrange. […] The ability of M3 to modulate Aβ-induced ROS levels in mitochondria was evaluated by the MitoSOX probe. The cells were treated with Aβ (40 μM) alone and with two concentrations of M3 for 8 h followed by treatment with MitoSOX to measure the relative ROS levels. […]

The values below come from patent publication US20250179024A1, “AMYLOID AND ASSOCIATED PATHOLOGY MODULATORS AND METHODS THEREOF” (Jawaharlal Nehru Centre for Advanced Scientific Research, priority 2022, published 2025).

Structures are written as SMILES.

For the compound `O=C1c2cccc3c(N(Cc4ccccn4)Cc4ccccn4)ccc(c23)C(=O)N1CCc1ccc(O)c(O)c1` [M3, 6-(bis(pyridin-2-ylmethyl)amino)-2-(3,4-dihydroxyphenethyl)-1H-benzo[de]isoquinoline-1,3(2H)-dione], the “translocation of Nrf2 to the nucleus” value in the data set with Nrf2 is “reduced the translocation of Nrf2 to the nucleus”. In addition, the figures for the “MMP relative to control (100%)” value in the data set on SH-SY5Y cells [1] (compound 20 μM) and with SH-SY5Y cells [1] (compound 50 µM) were 88% and 93%, respectively. In addition, the “MMP by fluorescence imaging” value in the data set with SH-SY5Y cells [1] (compound 50 μM) is “least affected”. Also, the cytotoxicity entry with SH-SY5Y cells [2] was “minimal toxicity”. In addition, the nuclear morphology result in the data set with SH-SY5Y cells [3] (DAPI) is recorded as “normal nuclear structures”. For the same compound, the “apoptosis of neuronal cells” value in the data set on SH-SY5Y cells [3] (Aβ alone ~35%, control ~8.5%) worked out at 22.5%. Further, the “mitochondrial ROS levels compared to control cells” value with SH-SY5Y cells [4] (compound 20 μM) was 1.6 fold; in the data set with SH-SY5Y cells [4] (compound 50 μM), 1.25 fold.
